# How the values were obtained:
# [1] = SREM profile in plasma after intragastric 14C-EC, mouse; assay type: in vivo, C57BL/6 mice; conditions: 30 min after 2 mg/kg BW intragastric 14C-EC
# Method: To assess the profile of SREMs in rodents, Sprague-Dawley rats (male, 9–10 week old, 270 ± 16 g of BW) and C57BL/6 mice (20 ± 1 g) were administered by gavage 2 mg/kg BW of ^14C-EC (corresponding to ≈10.6 μCi/rat and 6.7 μCi/mouse). Blood samples were collected 30 min after administration. Plasma was obtained by centrifugation at 4 °C for 15 min at 1800xg, separated in aliquots and analyzed by HPLC as described previously[18] with an on-line radioactivity detector (Radiomatic 610TR Flow System Analyzer, PerkinElmer, Inc., Waltham, Mass).
# [2] = Total [2-14C](−)-epicatechin-derived radioactivity in whole blood and plasma after oral intake; assay type: in vivo, humans; conditions: human
# Method: (§1) The study was a single-center, open-label, and non-randomized study with two distinct elements: a run-in phase to establish a more defined dietary background of dietary flavanols and procyanidins and the subsequent ^14C-EC ADME study (Fig. 1B). Participants (n = 12) were enrolled in the run-in phase (day –17 to day –4) and asked to supplement their daily diet for 14 days with a commercially available flavanol-containing cocoa-based drink (250 mg cocoa flavanols; 40 mg of EC). This was followed by a 4-day period (day –4 to 0) of a low-flavanol diet. One day (study day -1) prior to the initialization of the ^14C-EC ADME study, all eligible participants were accommodated under controlled conditions at a metabolic research facility (Covance Clinical Pharmacology Inc., Wisconsin) until completion of the study. Based on the compliance of the first part of the study, 8 participants were selected to participate in the ^14C-EC ADME study. During the ^14C-EC ADME study (Fig. 1B.), volunteers received a low-flavanol, standardized high-fiber diet, and were encouraged to maintain an adequate level of hydration (water ad libitum). Volunteers were asked to fast for 8 h before the initiation of the study and for at least 4 h after the intake of the ^14C-EC test drink (water ad libitum). Venous blood samples were taken using Vacutainer collection tubes, containing potassium EDTA at 0 h (just prior to ^14C-EC ingestion), and at 0.25, 0.5, 1, 1.5, 2, 2.5, 3, 4, 6, 8, 10, 12, 16, 24, 36, and 48 h after test drink consumption. Plasma was obtained by whole blood centrifugation at 2000 × g for 15 min at 5 °C, separated into aliquots and stored at −80 °C until analysis. All urine and feces from the time just prior to the consumption of the test drink were collected at different time intervals for radioactivity and metabolite profiling. Clinical parameters and laboratory evaluations of participants were assessed at screening, on study day –1, and after completing the study, as detailed in Supplementary Methods.
# The 50-mL drink consisted of an aqueous solution of ^14C-EC (specific activity 14.5 μCi μmol^−1) and delivered 60 mg (207 μmol) of EC and 300 μCi (660 × 10^6 dpm) of radioactivity. The drink was prepared one day before consumption to verify correctness of composition and stability. Volunteers received the ^14C-EC test drink (50 mL), followed by 3 × 50 mL of water that was used to rinse the test drink container, and 40 mL of water. The radioactivity remaining in the test drink containers was measured, and the residual radioactivity recovered from each container was subtracted from the amount administered to the corresponding volunteer.
# Radioactivity in aliquots of plasma and urine was measured by liquid scintillation counting. Blood and feces were dried and oxidized by combustion using a 307 Sample Oxidizer (Packard Instrument Company, Meriden, NH) before being analyzed by liquid scintillation counting.
# [3] = Metabolite profiling and pharmacokinetics in plasma (targeted HPLC-MS2); assay type: in vivo, humans; conditions: human, oral 60 mg 14C-EC
# Method: as §1
# Samples were processed as described previously[18] and analyzed by HPLC-MS^2 in conjunction with an on-line HPLC-radioactivity monitor as described in SI Materials and Methods. Identification of metabolites involved comparing the retention time with authentic standards and MS^2 fragmentation patterns (Supplementary Methods). Quantification of metabolites in urine was based on HPLC radioactivity peak area (limit of quantification: 10^3 dpm). Due to the low levels of radioactivity, quantification in plasma was based on targeted HPLC-MS^2 using standard curves obtained with authentic standards (Supplementary Methods).
# Data are expressed as mean values ± standard error, or as otherwise specified. Pharmacokinetic parameters were calculated using non-compartmental analysis with WinNonlin (Pharsight Corporation, Version 5.2).
# 5-20% acetonitrile in 0.1 % formic acid. Supplementary Table S2 provides details of HPLC retention times and the m/z values that were monitored.
# Supplementary Table S2. Detection of (−)-epicatechin metabolites. HPLC retention times and selected reaction monitoring ions used for the HPLC-MS analysis of (−)-epicatechin metabolites in plasma. […]
# Structurally related (-)-epicatechin metabolites in humans: assessment using de novo chemically synthesized authentic standards. Free Radic Biol Med 52, 1403- […]
# 3 Borges, G. et al. Bioavailability of multiple components following acute ingestion of a polyphenol-rich juice drink. Mol Nutr Food Res 54 Suppl 2, S268-277, […]
# 4 Stalmach, A. et al. Absorption, metabolism, and excretion of green tea flavan-3-ols in humans with an ileostomy. Mol Nutr Food Res 54, 323-334,
# [4] = all volunteers, post-consumption
compound,measurement,setting,value
"Oc1cc(O)c2c(c1)O[C@H](c1ccc(O)c(O)c1)[C@H](O)C2 [^14C-EC, [2-^14C](−)-epicatechin]",Detection in plasma,[1],No unmetabolized EC was detected
same,Association of whole blood radioactivity with plasma vs cellular components,[2],"associated, almost exclusively, with plasma"
same,Time by which radioactivity in plasma fell below the limit of quantitation,[2]; [4],≤ 72 h
same,Time by which radioactivity in whole blood fell below the limit of quantitation,[2]; [4],≤ 36 h
same,Time after consumption at which radioactivity was detected in the circulation,[2]; oral 60 mg 14C-EC,15 min
same,"Total radioactivity in the circulatory system at Cmax, of the amount of 14C-EC ingested",[2]; calculated from whole blood concentration and blood volume,< 2%
same,Levels of unmetabolized EC in plasma and urine,[3],below the limits of detection
